Where two headings read alike, the source gives them in different places.
Assays:
recombinant human PDE5 = recombinant human PDE5 (Homo sapiens (Human), UniProt O76074); assay: PDE5 inhibition, IMAP fluorescence polarization assay; type: biochemical; details: read-out: IC50 μM against PDE5
Experimental: (§1) Compounds according to the present disclosure were tested for their in vitro ability to inhibit recombinant human PDE5, COX1 and COX2 enzymes at screening doses of 50, 100 and 100 μM respectively.
PDE activity was measured using the IMAP fluorescence polarization assay (Molecular Devices) in which binding of hydrolyzed cyclic nucleotide substrate to immobilized metal coordination complexes increases fluorescence polarization (FP). Tetramethylrhodamine (TAMRA)-cGMP and fluorescein-cAMP were used as substrates, each at final concentration of 50 nmol/L. The PDE assay was done according to the manufacturer's specifications using either whole cell lysates or recombinant enzymes.

COX1 = COX1 (Ovis aries (Sheep), UniProt P05979); assay: COX-1 activity, colorimetric assay; type: biochemical, ovine; details: screening dose 100 μM; read-out: IC50 μM against COX1
Experimental: as §1
(§2) COX-1 and COX-2 activities were measured using purified ovine COX-1 and COX-2 with colorimetric assay kits obtained from Cayman Chemical Co. (Ann Arbor, Mich.). The activities of COX-1 and COX-2 were measured after the addition of arachidonic acid and incubation at 25° C. for 5 min by absorbance at 590 nm as specified by the manufacturer.

COX2 = COX2 (Ovis aries (Sheep), UniProt P79208); assay: COX-2 activity, colorimetric assay; type: biochemical, ovine; details: screening dose 100 μM; read-out: IC50 μM against COX2
Experimental: as §1, §2

[1] = test system: human breast MDA-MB-231 tumor cell line; assay: Tumor cell growth assay (Cell Titer Glo); type: cell-based; details: read-out: IC50 μM against MDA-MB-231
[2] = test system: human colorectal HT-29 tumor cell line; assay: Tumor cell growth assay (Cell Titer Glo); type: cell-based; details: read-out: IC50 μM against HT-29
[3] = recombinant human PDE5, IC50 determined if inhibition >50% at 50 μM screening dose

Chain of COX2 (P79208 17-603): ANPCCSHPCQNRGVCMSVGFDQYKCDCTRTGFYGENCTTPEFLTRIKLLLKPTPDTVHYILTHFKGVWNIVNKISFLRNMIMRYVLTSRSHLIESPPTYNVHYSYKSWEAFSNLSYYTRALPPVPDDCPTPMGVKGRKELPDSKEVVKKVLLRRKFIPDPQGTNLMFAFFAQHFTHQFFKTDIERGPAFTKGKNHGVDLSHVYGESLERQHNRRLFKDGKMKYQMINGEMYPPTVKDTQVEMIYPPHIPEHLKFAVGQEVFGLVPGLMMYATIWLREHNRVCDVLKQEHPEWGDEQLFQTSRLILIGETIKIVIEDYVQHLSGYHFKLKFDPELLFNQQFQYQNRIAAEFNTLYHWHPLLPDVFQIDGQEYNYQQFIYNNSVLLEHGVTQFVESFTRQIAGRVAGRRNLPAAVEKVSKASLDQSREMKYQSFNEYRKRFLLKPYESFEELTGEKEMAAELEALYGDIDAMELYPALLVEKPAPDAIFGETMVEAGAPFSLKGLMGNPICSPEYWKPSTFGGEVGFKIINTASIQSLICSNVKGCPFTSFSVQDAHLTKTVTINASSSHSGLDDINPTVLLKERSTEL
Chain of COX1 (P05979 25-600): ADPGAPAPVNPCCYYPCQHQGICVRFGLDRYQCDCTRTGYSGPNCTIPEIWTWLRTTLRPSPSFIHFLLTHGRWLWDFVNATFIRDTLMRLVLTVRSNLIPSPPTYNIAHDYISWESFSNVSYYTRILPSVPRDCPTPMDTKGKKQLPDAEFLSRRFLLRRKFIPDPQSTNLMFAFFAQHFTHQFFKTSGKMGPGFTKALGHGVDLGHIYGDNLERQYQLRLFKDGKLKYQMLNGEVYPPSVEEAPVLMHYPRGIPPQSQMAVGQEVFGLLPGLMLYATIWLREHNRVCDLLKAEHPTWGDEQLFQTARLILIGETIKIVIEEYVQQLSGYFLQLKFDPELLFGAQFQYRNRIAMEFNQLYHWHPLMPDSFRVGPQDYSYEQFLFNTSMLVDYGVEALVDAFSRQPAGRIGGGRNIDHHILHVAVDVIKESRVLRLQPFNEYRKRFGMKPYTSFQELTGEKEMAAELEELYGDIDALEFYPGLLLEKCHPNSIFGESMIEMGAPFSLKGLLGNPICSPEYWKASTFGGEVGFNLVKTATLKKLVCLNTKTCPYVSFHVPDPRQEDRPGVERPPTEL

| Structure (SMILES) | IC50 (recombinant human PDE5; [3]) [µM] | IC50 (COX1) [µM] | IC50 (COX2) [µM] | IC50 ([1]; MDA-MB-231, 72 hours) [µM] | IC50 ([2]; HT-29, 72 hours) [µM] | IC50 (recombinant human PDE5) [µM] | IC50 ([1]; 72 hours) [µM] | IC50 ([2]; 72 hours) [µM] |
| --- | --- | --- | --- | --- | --- | --- | --- | --- |
| COc1ccc(C2CC(c3ccc(OC)c(OC)c3)=NN2c2ccc(C(=O)O)cc2)cc1 (stereo not shown) [Compound 10, 4-(3-(3,4-Dimethoxyphenyl)-5-(4-methoxyphenyl)-4,5-dihydro-1H-pyrazol-1-yl)benzoic acid] | 6.9 | > 100 | > 100 | > 50 | 42.5 | – | – | – |
| CC(C)(C)C1=NN(c2ccc(S(=O)(=O)O)cc2)C(c2ccc(F)cc2)C1 (stereo not shown) [Compound 25, 4-(3-tert-Butyl-5-(4-fluorophenyl)-4,5-dihydro-1H-pyrazol-1-yl)benzenesulfonic acid] | 3.3 | > 100 | > 100 | > 50 | > 50 | – | – | – |
| CC(C)(C)C1=NN(c2ccc(C(=O)O)cc2)C(c2ccccc2)C1 (stereo not shown) [Compound 22, 4-(3-tert-Butyl-5-phenyl-4,5-dihydro-1H-pyrazol-1-yl)benzoic acid] | 6.22 | > 100 | > 100 | > 50 | > 50 | – | – | – |
| CC(C)(C)C1=NN(c2ccc(C(=O)O)cc2)C(c2cccc(Br)c2)C1 (stereo not shown) [Compound 16, 4-(5-(3-Bromophenyl)-3-(tert-butyl)-4,5-dihydro-1H-pyrazol-1-yl)benzoic acid] | 3.1 | > 100 | > 100 | > 50 | 8.8 | – | – | – |
| CC(C)(C)C1=NN(c2ccc(C(=O)O)cc2)C(c2ccc(Br)cc2)C1 (stereo not shown) [Compound 24, 4-(5-(4-Bromophenyl)-3-tert-butyl-4,5-dihydro-1H-pyrazol-1-yl)benzoic acid] | 7.7 | > 100 | > 100 | > 50 | > 50 | – | – | – |
| CCOc1ccc(C2CC(C(C)(C)C)=NN2c2ccc(C(=O)O)cc2)cc1 (stereo not shown) [Compound 15, 4-(3-(tert-Butyl)-5-(4-ethoxyphenyl)-4,5-dihydro-1H-pyrazol-1-yl)benzoic acid] | 2.9 | > 100 | > 100 | > 50 | 6 | – | – | – |
| CC(C)(C)C1=NN(c2ccc(S(=O)(=O)O)cc2)C(c2ccc(Cl)cc2)C1 (stereo not shown) [Compound 26, 4-(3-tert-Butyl-5-(4-chlorophenyl)-4,5-dihydro-1H-pyrazol-1-yl)benzenesulfonic acid] | 7.2 | > 100 | > 100 | > 50 | > 50 | – | – | – |
| CC(C)(C)C1=NN(c2ccc(C(=O)O)cc2)C(c2cccc(F)c2)C1 (stereo not shown) [Compound 19, 4-(3-(tert-Butyl)-5-(3-fluorophenyl)-4,5-dihydro-1H-pyrazol-1-yl)benzoic acid] | 2.7 | > 100 | > 100 | > 50 | > 50 | – | – | – |
| Cc1ccc(C2CC(C(C)(C)C)=NN2c2ccc(C(=O)O)cc2)cc1 (stereo not shown) [Compound 23, 4-(3-tert-Butyl-5-p-tolyl-4,5-dihydro-1H-pyrazol-1-yl)benzoic acid] | 8.4 | > 100 | > 100 | > 50 | > 50 | – | – | – |
| CC(C)(C)C1=NN(c2ccc(C(=O)O)cc2)C(c2ccc(Cl)cc2)C1 (stereo not shown) [Compound 21, 4-(3-tert-Butyl-5-(4-chlorophenyl)-4,5-dihydro-1H-pyrazol-1-yl)benzoic acid] | 8.7 | > 100 | > 100 | > 50 | > 50 | – | – | – |
| CC(C)(C)C1=NN(c2ccc(C(=O)O)cc2)C(c2ccccc2Br)C1 (stereo not shown) [Compound 14, 4-(5-(2-Bromophenyl)-3-(tert-butyl)-4,5-dihydro-1H-pyrazol-1-yl)benzoic acid] | 6.9 | > 100 | > 100 | > 50 | 39.6 | – | – | – |
| COc1ccc(C2CC(c3ccccc3)=NN2c2ccc(C(=O)O)cc2)cc1 (stereo not shown) [Compound 7, 4-(5-(4-Methoxyphenyl)-3-phenyl-4,5-dihydro-1H-pyrazol-1-yl)benzoic acid] | 1.2 | > 100 | > 100 | 48 | 36.7 | – | – | – |
| COc1ccc(C2CC(C(C)(C)C)=NN2c2ccc(C(=O)O)cc2)c(OC)c1 (stereo not shown) [Compound 4, 4-(3-tert-Butyl-5-(2,4-dimethoxyphenyl)-4,5-dihydro-1H-pyrazol-1-yl)benzoic acid] | – | > 100 | > 100 | > 50 | > 50 | 23.5 | – | – |
| COc1ccc(C2CC(c3ccc(F)cc3)=NN2c2ccc(C(=O)O)cc2)cc1 (stereo not shown) [Compound 27, 4-(3-(4-Fluorophenyl)-5-(4-methoxyphenyl)-4,5-dihydropyrazol-1-yl)benzoic acid] | 3.1 | > 100 | > 100 | > 50 | > 50 | – | – | – |
| CC(C)(C)C1=NN(c2ccc(C(=O)O)cc2)C(c2ccc(Cl)c(Cl)c2)C1 (stereo not shown) [Compound 13, 4-(3-(tert-Butyl)-5-(3,4-dichlorophenyl)-4,5-dihydro-1H-pyrazol-1-yl)benzoic acid] | 5.5 | > 100 | > 100 | > 50 | 25.7 | – | – | – |
| COc1ccc(C2CC(c3cccc(OC)c3)=NN2c2ccc(C(=O)O)cc2)cc1 (stereo not shown) [Compound 9, 4-(3-(3-Methoxyphenyl)-5-(4-methoxyphenyl)-4,5-dihydro-1H-pyrazol-1-yl)benzoic acid] | 1.8 | > 100 | > 100 | 45.6 | 25.9 | – | – | – |
| CCOc1ccccc1C1CC(C(C)(C)C)=NN1c1ccc(C(=O)O)cc1 (stereo not shown) [Compound 20, 4-(3-(tert-Butyl)-5-(2-ethoxyphenyl)-4,5-dihydro-1H-pyrazol-1-yl)benzoic acid] | 2 | > 100 | > 100 | – | – | – | > 50 | 22 |
| COc1ccc(C2CC(c3ccccc3OC)=NN2c2ccc(C(=O)O)cc2)cc1 (stereo not shown) [Compound 8, 4-(3-(2-Methoxyphenyl)-5-(4-methoxyphenyl)-4,5-dihydro-1H-pyrazol-1-yl)benzoic acid] | 3.2 | > 100 | > 100 | > 50 | > 50 | – | – | – |
| COc1ccc(C2CC(c3ccccc3)=NN2c2ccc(S(N)(=O)=O)cc2)cc1 (stereo not shown) [Compound 11, 4-(5-(4-Methoxyphenyl)-3-phenyl-4,5-dihydro-1H-pyrazol-1-yl)benzenesulfonamide] | 3.8 | > 100 | > 100 | 27.6 | 15.6 | – | – | – |
| CC(C)(C)C1=NN(c2ccc(C(=O)O)cc2)C(c2ccc(O)cc2)C1 (stereo not shown) [Compound 5, 4-(3-tert-Butyl-5-(4-hydroxyphenyl)-4,5-dihydro-1H-pyrazol-1-yl)benzoic acid] | 2.1 | > 100 | > 100 | > 50 | > 50 | – | – | – |
| CC(C)(C)C1=NN(c2ccc(C(=O)O)cc2)C(c2ccccc2F)C1 (stereo not shown) [Compound 18, 4-(3-(tert-Butyl)-5-(2-fluorophenyl)-4,5-dihydro-1H-pyrazol-1-yl)benzoic acid] | 3.3 | > 100 | > 100 | > 50 | > 50 | – | – | – |
| COc1ccc(C2CC(C(C)(C)C)=NN2c2ccc(C(=O)O)cc2)cc1 (stereo not shown) [Compound 1, 4-(3-tert-Butyl-5-(4-methoxyphenyl)-4,5-dihydro-1H-pyrazol-1-yl)benzoic acid] | 2.02 | > 100 | > 100 | > 50 | > 50 | – | – | – |
| CC(C)(C)C1=NN(c2ccc(C(=O)O)cc2)C(c2cccc([N+](=O)[O-])c2)C1 (stereo not shown) [Compound 3, 4-(3-tert-Butyl-5-(3-nitrophenyl)-4,5-dihydro-1H-pyrazol-1-yl)benzoic acid] | 3.2 | > 100 | > 100 | – | – | – | > 50 | > 50 |
| CC(C)(C)C1=NN(c2ccc(C(=O)O)cc2)C(c2ccccc2Cl)C1 (stereo not shown) [Compound 17, 4-(3-(tert-Butyl)-5-(2-chlorophenyl)-4,5-dihydro-1H-pyrazol-1-yl)benzoic acid] | 1.9 | > 100 | > 100 | > 50 | 20.8 | – | – | – |
| CC(C)(C)C1=NN(c2cccc(C(=O)O)c2)C(c2ccc(Cl)cc2)C1 (stereo not shown) [Compound 6, 3-(3-tert-Butyl-5-(4-chlorophenyl)-4,5-dihydro-4H-pyrazol-1-yl)benzoic acid] | 9.9 | > 100 | > 100 | > 50 | 39.9 | – | – | – |
| CC(C)(C)C1=NN(c2ccc(C(=O)O)cc2)C(c2ccc([N+](=O)[O-])cc2)C1 (stereo not shown) [Compound 2, 4-(3-tert-Butyl-5-(4-nitrophenyl)-4,5-dihydro-1H-pyrazol-1-yl)benzoic acid] | 5.7 | > 100 | > 100 | > 50 | > 50 | – | – | – |

Source: patent US9388139B2, “Derivatives of celeboxib, use thereof and preparation thereof” (German University, priority 2011, dated 2016)
